Test results as given in PubChem BioAssay (NCI).
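In this assay, cells in 96-well plates receive the compound at five concentrations for 48 hours. Endpoints are linearly interpolated between the surrounding concentrations. At the TGI there is no net growth.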

How the values were obtained:
Test in all cases: growth of human tumour cells (NCI), 48 h
786-0 renal = tested on: 786-0 renal
A549 NSCLC = tested on: A549 NSCLC
CAKI-1 renal = tested on: CAKI-1 renal
COLO 205 colon = tested on: COLO 205 colon
HL-60(TB) leukemia = tested on: HL-60(TB) leukemia
K-562 leukemia = tested on: K-562 leukemia
KM12 colon = tested on: KM12 colon
NCI-H226 lung = tested on: NCI-H226 lung
NCI-H23 lung = tested on: NCI-H23 lung
NCI-H522 lung = tested on: NCI-H522 lung
OVCAR-4 ovarian = tested on: OVCAR-4 ovarian
SK-MEL-5 melanoma = tested on: SK-MEL-5 melanoma
SK-OV-3 ovarian = tested on: SK-OV-3 ovarian
SNB-19 CNS = tested on: SNB-19 CNS
U251 CNS = tested on: U251 CNS
UO-31 renal = tested on: UO-31 renal
HCC-2998 colon = tested on: HCC-2998 colon
LOX IMVI melanoma = tested on: LOX IMVI melanoma
SR leukemia = tested on: SR leukemia

Compound | TGI (786-0 renal) | TGI (A549 NSCLC) | TGI (CAKI-1 renal) | TGI (COLO 205 colon) | TGI (HL-60(TB) leukemia) | TGI (K-562 leukemia) | TGI (KM12 colon) | TGI (NCI-H226 lung) | TGI (NCI-H23 lung) | TGI (NCI-H522 lung) | TGI (OVCAR-4 ovarian) | TGI (SK-MEL-5 melanoma) | TGI (SK-OV-3 ovarian) | TGI (SNB-19 CNS) | TGI (U251 CNS) | TGI (UO-31 renal) | TGI (HCC-2998 colon) | TGI (LOX IMVI melanoma) | TGI (SR leukemia)
CC1OC(OC2C(O[C@@H]3C[C@@H]4CC[C@@H]5[C@H](CC[C@]6(C)[C@@H]7[C@H](C[C@@H]56)O[C@]5(CC[C@@H](C)CO5)[C@H]7C)[C@@]4(C)C[C@H]3O)OC(CO)C(OC3OC(CO)C(O)C(O)C3O)C2O)C(O)C(O)C1O (some centres not stated) | 3.32 µM | 3.02 µM | 3.35 µM | 3.12 µM | 3.83 µM | 58.1 µM | 4.49 µM | 3.25 µM | 4.12 µM | 2.4 µM | 4.76 µM | 2.89 µM | 3.17 µM | 3.66 µM | 3.2 µM | 3.81 µM | – | – | –
Cc1cc(=O)[nH]c(CNC(=O)Cc2ccccc2)n1 | > 100 µM | > 100 µM | > 100 µM | > 100 µM | > 100 µM | > 100 µM | > 100 µM | > 100 µM | > 100 µM | > 100 µM | > 100 µM | – | > 100 µM | > 100 µM | – | > 100 µM | > 100 µM | > 100 µM | –
Cn1c(N)c(-c2c3ccccc3nc3ccccc23)c(=O)n(C)c1=O | > 100 µM | > 100 µM | > 100 µM | > 100 µM | > 100 µM | > 100 µM | > 100 µM | – | > 100 µM | > 100 µM | > 100 µM | > 100 µM | > 100 µM | – | > 100 µM | – | – | – | –
O=S(Cc1cc2c(cc1Br)OCO2)c1ccccc1 (configuration not stated) | > 100 µM | > 100 µM | > 100 µM | > 100 µM | 57.4 µM | > 100 µM | 59.4 µM | > 100 µM | > 100 µM | 56.3 µM | > 100 µM | > 100 µM | > 100 µM | > 100 µM | > 100 µM | > 100 µM | > 100 µM | 30.7 µM | –
COC(=O)c1cc(C)n(NC(=O)OC(C)(C)C)c1C | > 100 µM | > 100 µM | > 100 µM | > 100 µM | > 100 µM | > 100 µM | > 100 µM | > 100 µM | > 100 µM | > 100 µM | – | > 100 µM | > 100 µM | > 100 µM | > 100 µM | > 100 µM | > 100 µM | > 100 µM | –
O=C(Nc1cc(Cl)c(Cl)cc1Cl)C(=O)C(C(=O)c1ccc2ccccc2c1)C1OC(=O)c2ccccc21 (configuration not stated) | 20.9 µM | 81.5 µM | – | 69.2 µM | 88.1 µM | – | 31.2 µM | 7.13 µM | 15.2 µM | 26.9 µM | – | 24.4 µM | > 100 µM | 33.2 µM | 17 µM | 33.5 µM | – | 39.8 µM | > 100 µM
N#C/C(=C\c1ccc(O)cc1O)C(N)=O | > 100 µM | > 100 µM | > 100 µM | 26.5 µM | > 100 µM | > 100 µM | > 100 µM | > 100 µM | > 100 µM | > 100 µM | > 100 µM | – | > 100 µM | > 100 µM | > 100 µM | > 100 µM | > 100 µM | > 100 µM | –
